In brackets after ≈: the same amount, converted by molar mass.
Tests used:
[1] = tested on: HEK-Blue IL-6; experiment: Inhibition of IL-6/JAK/STAT3 signalling pathway in HEK-Blue IL-6 cells at 10 uM incubated for 16 hrs by QUANTI-blue assay relative to control; type: cell-based; conditions: Homo sapiens
[2] = Inhibition of IL-6/JAK/STAT3 signalling pathway in HEK-Blue IL-6 cells incubated for 16 hrs by QUANTI-blue assay; type: cell-based; conditions: Homo sapiens, HEK-Blue IL-6, 16 h
[3] = tested on: DU-145; experiment: Antiproliferative activity against human DU-145 cells assessed as inhibition of cell growth at 10 uM measured after 96 hrs by MTT assay relative to control; type: functional
[4] = tested on: DU-145; experiment: Antiproliferative activity against human DU-145 cells assessed as inhibition of cell growth measured after 96 hrs by MTT assay; type: functional, cell-based; conditions: DU-145, 96 h
[5] = tested on: MDA-MB-231; experiment: Antiproliferative activity against human MDA-MB-231 cells assessed as inhibition of cell growth at 10 uM measured after 96 hrs by MTT assay relative to control; type: functional
[6] = tested on: MDA-MB-231; experiment: Antiproliferative activity against human MDA-MB-231 cells assessed as inhibition of cell growth measured after 96 hrs by MTT assay; type: functional, cell-based; conditions: MDA-MB-231, 96 h
[7] = Metabolic stability in human liver microsomes at 10 uM measured after 120 mins in presence of NADPH-GS by HPLC-MS/MS analysis; type: ADME, Microsome; conditions: read-out: Stability
[8] = Metabolic stability in mouse liver microsomes assessed as half life in presence of NADPH/UDPGA; type: ADME, Microsome
[9] = Metabolic stability in mouse liver microsomes assessed as intrinsic clearance in presence of NADPH/UDPGA; type: ADME, Microsome; conditions: read-out: CLH
[10] = Solubility of compound in water incubated for 10 mins; type: physicochemical

SMILES | IC50 [2] | IC50 [4] | IC50 [6] | remaining at 2 h, 10 µM [7] | half-life [8] | microsomal CLint [9] | solubility at 10 min [10] | inhibition [1] | inhibition at 10 µM [3] | inhibition at 10 µM [5]
O=c1ccc2ccc(O)cc2o1 [UMBELLIFERONE] | – | – | – | – | 1.54 min | 902 µL/min/mg | – | – | – | –
COc1cc(-c2nnc(Nc3cc4nc(-c5ccc(F)cc5)n(C5CC5)c4cc3N3CCN(C)CC3)s2)cc(OC)c1OC | 4510 nM | 1.05 µM | 0.82 µM | 32.5% | – | – | 5.95 µg/mL (≈ 9.66 µM) | 95.7% | 87.3% | 92.5%
CC(C)Cn1c(-c2ccc(F)cc2)nc2cc(Nc3nnc(-c4ccccc4)s3)c(N3CCN(C)CC3)cc21 | 3920 nM | > 10 µM | 8.55 µM | – | – | – | – | 77.4% | 26.7% | 62.2%
CC(C)n1c(-c2ccc(F)cc2)nc2cc(Nc3nnc(-c4ccccc4)s3)c(N3CCN(C)CC3)cc21 | 3120 nM | > 10 µM | > 10 µM | – | – | – | – | 71.4% | -4.96% | 0.1%
CCCn1c(-c2ccc(F)cc2)nc2cc(Nc3nnc(-c4cccc(C(F)(F)F)c4)s3)c(N3CCN(C)CC3)cc21 | > 10000 nM | 9.73 µM | 6.63 µM | – | – | – | – | 5.21% | 55.6% | 90.1%
CCCn1c(-c2ccc(F)cc2)nc2cc(Nc3nnc(-c4ccc(C(F)(F)F)cc4)s3)c(N3CCN(C)CC3)cc21 | 3280 nM | 6.73 µM | 3.83 µM | – | – | – | – | 90.9% | 64.6% | 93.8%

Further compounds by falling IC50 [2], results first:

IC50 [2] | IC50 [4] | IC50 [6] | remaining at 2 h, 10 µM [7] | half-life [8] | microsomal CLint [9] | solubility at 10 min [10] | SMILES | inhibition [1] | inhibition at 10 µM [3] | inhibition at 10 µM [5]
2960 nM | > 10 µM | > 10 µM | – | – | – | – | CN1CCN(c2cc3c(cc2Nc2nnc(-c4ccccc4)s2)nc(-c2ccc(Cl)cc2)n3C2CC2)CC1 | 75.8% | -4.82% | 6.84%
2380 nM | 4.42 µM | 0.8 µM | 25% | – | – | – | CCCn1c(-c2ccc(F)cc2)nc2cc(Nc3nnc(-c4cc(OC)c(OC)c(OC)c4)s3)c(N3CCN(C)CC3)cc21 | 108% | 80.7% | 94.5%
1990 nM | 9.17 µM | 5.92 µM | – | – | – | – | CN1CCN(c2cc3c(cc2Nc2nnc(-c4ccccc4)s2)nc(-c2ccccc2)n3C2CC2)CC1 | 78.1% | 47% | 83.3%
1960 nM | 4.34 µM | 3.33 µM | – | – | – | – | CCCn1c(-c2ccc(F)cc2)nc2cc(Nc3nnc(-c4cccc(F)c4)s3)c(N3CCN(C)CC3)cc21 | 85.3% | 78.9% | 94.7%
1320 nM | 4.68 µM | 3.34 µM | – | – | – | – | CCCn1c(-c2ccc(F)cc2)nc2cc(Nc3nnc(-c4ccccc4)s3)c(N3CCN(C)CC3)cc21 | 105% | 80.7% | 93.4%
600 nM | > 10 µM | > 10 µM | – | – | – | – | Fc1ccc(-c2nc3cc(Nc4nnc(-c5ccccc5C(F)(F)F)s4)c(F)cc3n2C2CC2)cc1 | 99.9% | 14.7% | 3.62%
410 nM | > 10 µM | > 10 µM | – | – | – | – | Fc1cccc(-c2nc3cc(Nc4nnc(-c5cccc(C(F)(F)F)c5)s4)c(F)cc3n2C2CC2)c1 | 90% | -7.06% | 5.54%

From ChEMBL document CHEMBL5321275, “Discovery, Optimization, and Evaluation of Novel N-(Benzimidazol-5-yl)-1,3,4-thiadiazol-2-amine Analogues as Potent STAT3 Inhibitors for Cancer Treatment” (J Med Chem, 2023)
